Results taken from PMC3495596 (Journal of medicinal chemistry, 2012).

Key:
thermolysin [1] = molecular target: T1, thermolysin (Bacillus thermoproteolyticus, UniProt P00800); type: biochemical; conditions: free energy of binding corresponding to Ki
thermolysin [2] = molecular target: T1, thermolysin; type: binding

T1 sequence (P00800 233-548): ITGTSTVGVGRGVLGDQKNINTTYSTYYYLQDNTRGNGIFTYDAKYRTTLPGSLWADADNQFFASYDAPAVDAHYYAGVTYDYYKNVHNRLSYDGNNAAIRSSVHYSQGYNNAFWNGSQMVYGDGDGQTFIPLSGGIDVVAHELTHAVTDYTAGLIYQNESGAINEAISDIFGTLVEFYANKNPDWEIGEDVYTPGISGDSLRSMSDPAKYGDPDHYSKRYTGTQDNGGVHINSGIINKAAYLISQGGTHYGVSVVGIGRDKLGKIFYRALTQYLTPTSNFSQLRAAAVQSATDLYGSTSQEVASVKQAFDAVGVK

Row | Compound | ΔGKi (thermolysin [1]) [kcal/mol] | ΔΔH (thermolysin [2]) [kcal/mol]
1 | CC(C)C[C@H](NP(=O)([O-])CNC(=O)OCc1ccccc1)C(=O)N[C@@H](C)C(=O)[O-].[Li+].[Li+] [Compound 8b, N-(N-(N-(benzyloxycarbonyl)-aminomethylphosphonyl)-L-leucinyl)-alaninate di-Lithium] | -10.5 | -3.18
2 | CC(C)C[C@H](NP(=O)([O-])CNC(=O)OCc1ccccc1)C(=O)NCC(=O)[O-].[Li+].[Li+] [Compound 8a, N-(N-(N-(benzyloxycarbonyl)-aminomethylphosphonyl)-L-leucinyl)-glycinate di-lithium] | -8.63 | 
3 | CNC(=O)[C@H](CC(C)C)NP(=O)([O-])CNC(=O)OCc1ccccc1.[Li+] [Compound 8c, N-(N-(benzyloxycarbonyl)-aminomethylphosphonyl)-N′-methyl-L-leucinamide lithium] | -8.25 | 
4 | CCNC(=O)[C@H](CC(C)C)NP(=O)([O-])CNC(=O)OCc1ccccc1.[Li+] [Compound 8d, N-(N-(benzyloxycarbonyl)-aminomethylphosphonyl)-N′-ethyl-L-leucinamide lithium] | -8.91 | 
